Legend:
RyR1 = target: T1, RyR1 (Oryctolagus cuniculus, UniProt P11716); assay: Single channel electrophysiology of RyR1 channels inserted into lipid bilayers (exposure to peptide); format: biochemical, New Zealand white rabbit (skeletal SR); settings: for relPo: without WO, relative to control
T1 construct: skeletal SR vesicles were isolated from the back and leg muscles of mature female New Zealand white rabbits; from tissue; host or cells: rabbit back and leg skeletal muscle, sarcoplasmic reticulum vesicles
Protocol: Cardiac SR was prepared from mature female crossbred sheep hearts, and skeletal SR vesicles were isolated from the back and leg muscles of mature female New Zealand white rabbits[29],[54] with approval from the ANU Animal Experiment Ethics Committee Protocol Number A2015/35. […] Solutions for vesicle incorporation contained (mM): cis 230 caesium methanesulfonate (CsMS); 20 CsCl; 1 CaCl2 and 10 […] (TES) pH 7.4 and trans 30 CsMS; 20 CsCl; 1 CaCl2 10 TES; pH 7.4. […] Following incorporation, 200 mM CsMS was added to the trans solution and the cis solution exchanged with recording solution containing (mM): 230 CsMS; 20 CsCl; 0.001 CaCl2;10 TES and pH 7.4, with [Ca^2+] set by a [BAPTA] determined using a Ca^2+ electrode. The cytoplasmic and luminal solutions contained 1 μM and 1 mM Ca^2+ respectively, with symmetrical 250/250 mM CsMS. Bilayer voltage was switched between +40 mV and −40 mV (cytoplasmic voltage relative to grounded luminal solution) every 30 s. The activity of the RyR channels used here included 1 µM Ca^2+ in the cytoplasmic solution and 1 mM Ca^2+ in the luminal solution[29],[55]. Electrophysiology experiments were analysed using Channel 2 (P.W. Gage, M. Smith, Australian National University) and Channel 3 (N.W. Laver, University of Newcastle, Australia) software, available from the authors upon request. Statistical analyses were performed using Microsoft Excel (Office 365). […] Following most incorporation events, a single channel only was active in the bilayer and channel open probability (Po), mean open time (To), mean closed time (Tc) and open event frequency (Fo) were measured. When 2–4 channels were active in a bilayer, PO was approximated from the fractional mean current (I’F), i.e., mean current divided by maximum current. I’F is equal to PO in a single channel and indicates the average PO of multiple channels in a bilayer. […] Experiments at UN also included a minority of multi-channel experiments. The bilayer rigs, solution composition, source of channels, data acquisition and analyses methods were all identical.
Statistical analysis of single channel data was performed using Excel spreadsheets and embedded Students t-test functions or a sign test as indicated in the graphs in Figs. 1 and 3.

CaV2.2 = assay: FLIPR Ca2+ assay, inhibition of endogenous CaV2.2; format: cell-based, human; settings: for Ca2+ response relative to control response: 3 µM Xt3a pre-treatment, KCl 90 mM/CaCl2 5 mM + nifedipine 10 μM, over 300 s
Protocol: SH-SY5Y human neuroblastoma cells (European Collection of Authenticated Cell Culture, Sigma Aldrich, 94030304-1VL) were cultured in RPMI media (ThermoFisher Scientific, Scoresby, Australia) supplemented with 15% foetal bovine serum and L-glutamine (1 mM) and passaged at approximately 80% confluency with TrypLE Express (Thermo Fisher, Australia). For fluorescence imaging, cells were plated on CellBIND (Corning) 384-well black-walled imaging plates at a density of 20,000–30,000 cells/well in complete media and cultured for 48 h at 37 °C/5% CO2.
Briefly, SH-SY5Y cells were loaded with Calcium 4 no-wash dye (Molecular Devices) diluted in physiological salt solution (composition in mM: NaCl 140, D-glucose 11.5, KCl 5.9, MgCl2 1.4, NaH2PO4 1.2, NaHCO3 5, CaCl2 1.8, HEPES 10) for 30 min at 37 °C. A two-addition FLIPR^Tetra (Molecular Devices) protocol using the following settings was used to measure fluorescence responses: excitation 470–495 nm; emission 515–575 nm; excitation intensity 80%; excitation duration 0.8 s; gain 140; read interval 1/s; read number 300/addition. Responses mediated via endogenously expressed ion channels were elicited by addition of: choline (30 μM)/PNU-120596 (10 μM) for α7 nAChR-mediated responses; nicotine (30 μM) for α3β2/α3β4 nAChR-mediated responses; KCl (90 mM)/CaCl2 (5 mM) for CaV1.3-mediated responses; KCl (90 mM)/CaCl2 (5 mM) + nifedipine (10 μM) for CaV2.2-mediated responses; vertridine (70 μM) for NaV1.2-mediated responses; and veratridine (4 μM)/OD1 (300 nM) for NaV1.7-mediated responses. Raw fluorescence readings were converted to response over baseline using the analysis tool Screenworks 3.1.1.4 (Molecular Devices) and were expressed relative to the maximum increase in fluorescence of control responses and plotted using GraphPad Prism 9.3.1.
In the cell-based FLIPR assays statistical analysis was performed using GraphPad Prism 9.3.1. Statistical significance was defined as p < 0.05, and determined by one-sample t-test assessing difference to the control value of 100%. In α7 nAChR, α3-containing nAChR, CaV1.3, CaV2.2, NaV1.2 and NaV1.7 channels (Supplementary Fig. 5B), with distribution (t) and degrees of freedom (df) being: t = 0.9683, df = 2 (α7); t = 1.338, df = 2 (α3); t = 1.775, df = 2 (NaV1.2); t = 1.478

T1 sequence (P11716 whole entry): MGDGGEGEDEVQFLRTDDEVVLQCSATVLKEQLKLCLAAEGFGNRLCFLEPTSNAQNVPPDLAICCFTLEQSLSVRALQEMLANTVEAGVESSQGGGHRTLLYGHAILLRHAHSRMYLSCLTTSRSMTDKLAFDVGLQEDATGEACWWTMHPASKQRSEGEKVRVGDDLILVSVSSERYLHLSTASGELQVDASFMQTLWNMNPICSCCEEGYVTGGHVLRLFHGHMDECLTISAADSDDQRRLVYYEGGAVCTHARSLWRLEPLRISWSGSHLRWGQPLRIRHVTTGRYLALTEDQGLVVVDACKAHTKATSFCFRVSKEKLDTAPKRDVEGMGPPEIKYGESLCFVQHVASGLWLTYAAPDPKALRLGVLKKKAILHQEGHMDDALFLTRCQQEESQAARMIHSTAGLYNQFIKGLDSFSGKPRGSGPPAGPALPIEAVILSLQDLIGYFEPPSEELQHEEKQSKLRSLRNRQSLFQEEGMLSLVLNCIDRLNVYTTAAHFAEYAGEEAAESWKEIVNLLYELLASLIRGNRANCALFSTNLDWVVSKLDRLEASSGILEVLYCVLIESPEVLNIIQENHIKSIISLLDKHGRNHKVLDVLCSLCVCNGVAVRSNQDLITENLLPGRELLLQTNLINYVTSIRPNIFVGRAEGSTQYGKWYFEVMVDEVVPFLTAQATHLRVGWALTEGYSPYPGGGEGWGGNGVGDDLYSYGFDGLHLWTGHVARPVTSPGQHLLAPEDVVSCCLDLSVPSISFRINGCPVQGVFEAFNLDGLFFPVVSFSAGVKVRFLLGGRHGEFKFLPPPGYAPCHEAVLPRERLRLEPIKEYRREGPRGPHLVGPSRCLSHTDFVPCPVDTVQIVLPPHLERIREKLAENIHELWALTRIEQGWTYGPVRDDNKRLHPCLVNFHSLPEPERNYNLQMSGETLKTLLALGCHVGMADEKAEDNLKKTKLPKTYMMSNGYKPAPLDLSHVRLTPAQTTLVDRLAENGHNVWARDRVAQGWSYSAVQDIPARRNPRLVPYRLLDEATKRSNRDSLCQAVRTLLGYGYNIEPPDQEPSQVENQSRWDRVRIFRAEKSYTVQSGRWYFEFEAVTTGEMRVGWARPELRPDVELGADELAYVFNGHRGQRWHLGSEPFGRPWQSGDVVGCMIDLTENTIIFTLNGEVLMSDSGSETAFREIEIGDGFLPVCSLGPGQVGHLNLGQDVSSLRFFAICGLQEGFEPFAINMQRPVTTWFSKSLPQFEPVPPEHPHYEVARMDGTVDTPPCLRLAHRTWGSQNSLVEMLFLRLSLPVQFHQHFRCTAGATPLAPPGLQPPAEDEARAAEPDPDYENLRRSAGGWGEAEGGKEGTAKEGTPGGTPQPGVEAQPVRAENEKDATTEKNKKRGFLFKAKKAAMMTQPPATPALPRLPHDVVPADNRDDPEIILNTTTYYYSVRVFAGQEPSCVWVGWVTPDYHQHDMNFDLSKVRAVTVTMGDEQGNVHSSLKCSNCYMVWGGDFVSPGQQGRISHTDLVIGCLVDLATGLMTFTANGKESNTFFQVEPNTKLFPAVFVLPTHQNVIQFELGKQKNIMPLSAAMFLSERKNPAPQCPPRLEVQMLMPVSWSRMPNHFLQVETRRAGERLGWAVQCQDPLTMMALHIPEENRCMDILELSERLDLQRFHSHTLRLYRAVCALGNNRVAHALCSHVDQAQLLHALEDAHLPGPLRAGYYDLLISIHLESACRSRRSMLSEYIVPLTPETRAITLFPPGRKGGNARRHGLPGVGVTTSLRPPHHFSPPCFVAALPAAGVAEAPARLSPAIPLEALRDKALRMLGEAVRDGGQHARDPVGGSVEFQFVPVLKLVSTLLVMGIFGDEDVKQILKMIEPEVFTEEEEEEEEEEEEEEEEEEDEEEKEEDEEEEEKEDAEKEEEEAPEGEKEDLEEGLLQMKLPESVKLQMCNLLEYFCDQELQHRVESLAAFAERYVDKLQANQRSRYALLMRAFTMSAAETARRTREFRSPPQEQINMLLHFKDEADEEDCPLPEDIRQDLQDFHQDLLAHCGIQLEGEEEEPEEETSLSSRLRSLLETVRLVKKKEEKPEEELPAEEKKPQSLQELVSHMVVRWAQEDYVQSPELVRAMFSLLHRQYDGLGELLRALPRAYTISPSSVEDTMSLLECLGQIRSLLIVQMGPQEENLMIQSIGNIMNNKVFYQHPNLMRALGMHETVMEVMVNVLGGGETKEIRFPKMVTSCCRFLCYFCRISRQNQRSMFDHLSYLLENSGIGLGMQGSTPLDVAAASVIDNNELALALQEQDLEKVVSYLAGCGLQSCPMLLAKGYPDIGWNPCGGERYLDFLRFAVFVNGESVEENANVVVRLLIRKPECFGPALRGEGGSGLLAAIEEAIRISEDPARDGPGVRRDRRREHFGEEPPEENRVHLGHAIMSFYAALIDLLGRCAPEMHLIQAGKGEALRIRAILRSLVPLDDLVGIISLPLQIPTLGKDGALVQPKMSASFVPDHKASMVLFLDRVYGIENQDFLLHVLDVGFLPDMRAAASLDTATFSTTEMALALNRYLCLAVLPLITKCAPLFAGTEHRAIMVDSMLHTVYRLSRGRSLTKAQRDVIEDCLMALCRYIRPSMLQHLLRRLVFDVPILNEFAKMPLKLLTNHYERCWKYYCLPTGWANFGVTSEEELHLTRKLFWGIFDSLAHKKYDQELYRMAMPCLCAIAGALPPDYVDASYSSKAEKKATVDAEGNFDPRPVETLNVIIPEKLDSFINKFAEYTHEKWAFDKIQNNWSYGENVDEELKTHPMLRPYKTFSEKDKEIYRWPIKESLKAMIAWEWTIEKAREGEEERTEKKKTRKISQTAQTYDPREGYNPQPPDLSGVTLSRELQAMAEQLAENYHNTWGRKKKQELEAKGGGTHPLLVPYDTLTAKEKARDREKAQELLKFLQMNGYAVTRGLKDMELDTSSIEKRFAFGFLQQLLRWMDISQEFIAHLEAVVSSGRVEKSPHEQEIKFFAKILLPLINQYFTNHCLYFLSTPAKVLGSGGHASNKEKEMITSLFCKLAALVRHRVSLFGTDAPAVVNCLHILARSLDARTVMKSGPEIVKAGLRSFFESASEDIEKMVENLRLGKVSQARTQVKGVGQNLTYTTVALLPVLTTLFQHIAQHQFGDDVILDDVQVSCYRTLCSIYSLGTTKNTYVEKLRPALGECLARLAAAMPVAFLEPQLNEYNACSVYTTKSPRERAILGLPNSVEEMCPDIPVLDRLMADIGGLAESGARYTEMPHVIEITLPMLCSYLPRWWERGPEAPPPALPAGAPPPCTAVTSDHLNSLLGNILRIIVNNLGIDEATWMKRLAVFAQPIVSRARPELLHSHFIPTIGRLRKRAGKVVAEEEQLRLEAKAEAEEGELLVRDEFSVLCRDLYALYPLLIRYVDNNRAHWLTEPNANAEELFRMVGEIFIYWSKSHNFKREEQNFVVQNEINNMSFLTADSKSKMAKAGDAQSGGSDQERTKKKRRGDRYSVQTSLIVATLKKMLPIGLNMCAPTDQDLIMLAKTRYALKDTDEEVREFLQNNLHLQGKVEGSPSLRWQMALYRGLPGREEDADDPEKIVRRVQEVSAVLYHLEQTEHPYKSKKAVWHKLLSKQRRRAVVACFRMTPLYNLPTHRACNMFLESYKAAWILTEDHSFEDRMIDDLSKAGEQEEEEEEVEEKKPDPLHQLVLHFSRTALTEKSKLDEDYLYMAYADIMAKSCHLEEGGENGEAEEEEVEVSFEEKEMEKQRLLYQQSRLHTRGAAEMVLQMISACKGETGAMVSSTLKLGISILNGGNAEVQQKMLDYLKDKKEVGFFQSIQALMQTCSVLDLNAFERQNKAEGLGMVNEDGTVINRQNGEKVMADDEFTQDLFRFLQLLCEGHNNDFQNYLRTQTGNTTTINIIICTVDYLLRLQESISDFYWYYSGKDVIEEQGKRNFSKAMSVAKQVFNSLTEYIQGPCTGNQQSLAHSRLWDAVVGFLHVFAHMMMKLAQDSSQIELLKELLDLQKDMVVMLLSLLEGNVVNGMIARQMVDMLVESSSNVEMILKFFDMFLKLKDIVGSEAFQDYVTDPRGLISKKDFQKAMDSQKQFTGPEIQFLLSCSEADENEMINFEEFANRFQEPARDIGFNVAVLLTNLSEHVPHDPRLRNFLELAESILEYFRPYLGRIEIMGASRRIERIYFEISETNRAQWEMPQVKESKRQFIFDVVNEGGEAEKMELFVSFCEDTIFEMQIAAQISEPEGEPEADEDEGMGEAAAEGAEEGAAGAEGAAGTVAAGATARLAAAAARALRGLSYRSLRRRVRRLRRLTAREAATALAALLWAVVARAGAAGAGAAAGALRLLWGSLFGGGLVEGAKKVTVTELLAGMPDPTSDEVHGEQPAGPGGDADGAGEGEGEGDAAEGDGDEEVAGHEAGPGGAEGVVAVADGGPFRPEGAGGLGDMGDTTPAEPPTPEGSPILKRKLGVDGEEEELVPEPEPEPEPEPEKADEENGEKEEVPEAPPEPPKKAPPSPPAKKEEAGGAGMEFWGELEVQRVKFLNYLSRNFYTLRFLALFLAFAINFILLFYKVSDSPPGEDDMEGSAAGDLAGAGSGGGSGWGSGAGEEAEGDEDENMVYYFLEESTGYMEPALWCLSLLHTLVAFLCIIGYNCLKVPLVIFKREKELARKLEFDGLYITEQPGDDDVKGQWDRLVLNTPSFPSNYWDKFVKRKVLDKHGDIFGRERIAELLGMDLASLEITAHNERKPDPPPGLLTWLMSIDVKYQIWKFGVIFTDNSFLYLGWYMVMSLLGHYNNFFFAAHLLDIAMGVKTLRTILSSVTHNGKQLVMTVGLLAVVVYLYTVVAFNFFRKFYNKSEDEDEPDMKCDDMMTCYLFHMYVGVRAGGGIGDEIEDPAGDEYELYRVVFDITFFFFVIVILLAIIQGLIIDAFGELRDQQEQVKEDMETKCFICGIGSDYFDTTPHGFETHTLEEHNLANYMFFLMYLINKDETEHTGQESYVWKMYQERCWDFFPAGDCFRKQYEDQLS

With φ-Xibalbin3-Xt3a the “activity against RyR1 (discussion)” value (RyR1) was “even more potent than IpTxA”, the relPo (RyR1; 10 pM Xt3a, mean (sem in row below)) was 4.209 and the relPo (RyR1; 10 pM Xt3a, replicate CT1012 n) was 4.171. The relPo (RyR1; 10 pM Xt3a, replicate CT1013 n) was 17.6667, the relPo (RyR1; 10 pM Xt3a, replicate CT1024 n) was 1.745 and the relPo (RyR1; 10 pM Xt3a, replicate CT1051 n) was 0.553. For the same substance, the relPo (RyR1; 10 pM Xt3a, replicate CT1052 n) was 1.086, the relPo (RyR1; 10 pM Xt3a, replicate CT1055 n) was 3.339 and the relPo (RyR1; 10 pM Xt3a, replicate CT1143 n) was 0.669. For the same substance, the relPo (RyR1; 10 pM Xt3a, replicate CT1144 n) was 11.3, the relPo (RyR1; 10 pM Xt3a, replicate CT1145 n) was 13.6431 and the relPo (RyR1; 10 pM Xt3a, replicate CT1146 n) was 1.397. For the same substance, the “channel open probability (PO) relative to baseline” value (RyR1; 10 pM to 1 µM) was “significant changes in all Xt3a concentrations tested”, the “substate level, % of maximum conductance” value (RyR1; 100 pM Xt3a, −40 mV, prolonged gating to substate levels) was less than 50% and the relPo (RyR1; 100 pM Xt3a, mean (sem in row below)) was 2.735. For the same substance, the relPo (RyR1; 100 pM Xt3a, replicate CT1012 n) was 1.829, the relPo (RyR1; 100 pM Xt3a, replicate CT1013 n) was 17 and the relPo (RyR1; 100 pM Xt3a, replicate CT1024 n) was 1.169. For the same substance, the relPo (RyR1; 100 pM Xt3a, replicate CT1051 n) was 0.6185, the relPo (RyR1; 100 pM Xt3a, replicate CT1052 n) was 1.17 and the relPo (RyR1; 100 pM Xt3a, replicate CT1055 n) was 1.101. For the same substance, the relPo (RyR1; 100 pM Xt3a, replicate CT1143 n) was 1.262, the relPo (RyR1; 100 pM Xt3a, replicate CT1144 n) was 6.375 and the relPo (RyR1; 100 pM Xt3a, replicate CT1145 n) was 3.125. For the same substance, the relPo (RyR1; 100 pM Xt3a, replicate CT1146 n) was 1.411, the “decline in PO compared with 10 nM Xt3a” value (RyR1; 0.1–1 µM Xt3a) was ~ 50% and the “full conductance channel openings (high affinity activation)” value (RyR1; Xt3a up to 10 nM) was “led to an increase in full conductance channel openings”. For the same substance, the “voltage-dependent promotion of channel substate activity” value (RyR1; −40 mV vs +40 mV, RyR1 and RyR2) was “greater in the presence of nanomolar concentrations of Xt3a in RyR1 than in RyR2”, the “Ca2+ response relative to control response” value (CaV2.2; replicate 1) was 99.2207% and the “Ca2+ response relative to control response” value (CaV2.2; replicate 2) was 92.2928%. The “Ca2+ response relative to control response” value (CaV2.2; replicate 3) was 79.9392% and the “inhibition of Ca2+ responses” value (CaV2.2; Xt3a 3 µM) was “did not inhibit Ca^2+ responses”.
